This note sets out measurements from patent US20130177546A1, “METHOD FOR ENHANCING EFFICACY AND SELECTIVITY OF CANCER CELL KILLING BY DNA DAMAGING AGENTS” (MAINE INSTITUTE FOR HUMAN GENETICS AND HEALTH, priority 2011, published 2013).

Holding throughout (assay type): cell-based
The test system of test [1] is SK-Br-3 (p53-mutant) cells. The test can be described thus: Clonogenic survival assay after DNA damage, SK-Br-3 cells expressing Arm1 or control shRNA. The following applies: for survival: 0.5 mM DOX; for cells surviving: 0.0025% MMS. As to the method: (§1) MCF7 and SK-Br-3 cells were obtained from ATCC and maintained in DMEM or McCoys 5A supplemented with 10% FBS and antibiotics at 37° C., 5% CO2. A human Flag-tagged Arm1, Rev1, and p21 expression construct (Origene) were transiently transfected into SK-Br-3 cells with Fugene 6 (Roche) and extracts generated after 24 h. Lentiviral shRNA particles were obtained from Open Biosystems and stably expressing clones selected with puromycin and confirmed by GFP expression and Q-PCR (FIG. 10). […] Surviving colonies were stained with methylene blue and counted 2 weeks after treatments.
(§2) The results from this example are shown in FIG. 3. a, Arm1 promotes PCNA methyl esterification following DNA damage. PCNA was analyzed by 2D-PAGE immunoblotting in SK-Br-3 and MCF7 cells expressing Arm1 or non-targeting (control) shRNA in the absence of DNA damage or 4 h following Dox treatment or UV irradiation. b, PCNA-dependent methyltransferase activities are alter in shRNA expressing SK-Br-3 and MCF7 cells. WCE were assayed for PCNA-dependent carboxyl methyltransferase activity in the presence of His-PCNA ([…]) and average activities shown (±S.E.M.). Significance was determined using a two-tailed t-test. c, DNA damage sensitivity in Arm1 knockdown cells is related to p53 status. MCF7 (p53 wild-type) and SK-Br-3 (p53-mutant) cells were exposed to increasing levels of Dox and UV and survival determined by clonogenic survival. Average results from three independent experiments are presented ±SD. d, Arm1 knockdown promotes DNA repair. DNA repair rates were determined in shRNA expressing SK-Br-3 and MCF7 cells using host cell reactivation assay. Cells were transfected with UV-irradiated reporter plasmids and average repair rates were determined after 24 h. Average results from independent experiments are presented (±S.E.M.). Significance was determined with a two-tailed t-test.
In addition to PCNA modification in knock-down cells, we examined cell survival following DNA damage (FIG. 4b). […] In MCF7 cells with knocked-down Arm1 expression 47% of cells survived 0.5 mM DOX compared to 15% survival in the control cells (FIG. 4b). Similar results were consistently observed in response to UV with 39% of the Arm1 knock-down cells surviving 25 J/m^2 compared to 19% in the control. […] Additionally, because ˜50% of tumours harbour p53 mutations and knock-down of Arm1 expression in p53-mutant breast tumours appeared to sensitize the cells to DNA damage, inhibition of Arm1 may ultimately allow us to more effectively target tumour cells.

Test [2] deals with MCF7 (p53 wild-type) cells. The test can be described thus: Clonogenic survival assay after DNA damage, MCF7 cells expressing Arm1 or control shRNA. How it is done: as §1, §2
In addition to PCNA modification in knock-down cells, we examined cell survival following DNA damage (FIG. 4b). […]

Test [3] concerns p21^WAF1/CIP1. The experiment in a line: p21 expression in Dox-treated MCF7 cells (SDS-PAGE, immunoblot). The note with it: MCF7 cells following Dox treatment. As to the method:
The results from this example are shown in FIG. 2. a, Doxorubicin (Dox) promotes PCNA methyl esterification in MCF7 cells. Whole cell extracts (WCE) from cultures treated with Dox ([…]) were resolved by 2D-PAGE followed by PCNA immunoblotting (IB). The basic-shifted PCNA isoform (ME-PCNA) is identified with an arrow. b, PCNA-dependent methyltransferase activity is altered following Dox treatment. Dox treated MCF7 WCE were assayed for PCNA-dependent activity in triplicate using the vapour diffusion assay, and average activities are presented ±S.E.M. Significance was determined using a two-tailed t-test. c, Dox induces p21 expression in MCF7 cells. Extracts were separated by SDS-PAGE and immunoblotted for p21^Waf1/Cip1. d, p21 binding promotes PCNA methyl esterification. Untreated MCF7 extracts were incubated with GST, GST-p21 (full-length), and GST-p21(PIP) proteins bound to glutathione Sepharose for 2 h at 4° C. prior to 2D-PAGE and PCNA immunoblotting. e The p21-induced basic shift is a result of PCNA methyl esterification. p21(PIP) peptide was covalently coupled to CH-Sepharose and used to affinity purify PCNA from MCF7 whole cell extracts. Purified fractions were separated by 2D-PAGE and stained with colloidal Coomassie blue. Spots were excised from the gel, digested with trypsin, and analyzed by LC-MS/MS. […]

A value given as a limit tells only on which side of the number the result lay.

As to `COc1cccc2c1C(=O)c1c(O)c3c(c(O)c1C2=O)C[C@@](O)(C(=O)CO)C[C@@H]3O[C@H]1C[C@H](N)[C@H](O)[C@H](C)O1` [DOX, doxorubicin], the survival in test [1] (SK-Br-3 cells with knock-down of Arm1 expression) came to 3%; in test [1] (SK-Br-3 control cells), 18%; in test [2] (MCF7 control cells, 0.5 mM DOX) it was 15%. The cells survived in test [2] (MCF7 cells with knocked-down Arm1 expression, 0.5 mM DOX) is listed as 47%. For the same molecule, in test [3], the “increased expression of p21^WAF1/CIP1” value was above 27 fold.

Take `COS(C)(=O)=O` [MMS]: the values for the cells surviving in test [1] (SK-Br-3 Arm1 knock-down cells) and in test [1] (SK-Br-3 control cells) were 4% and 12%, respectively. In test [2] (MCF7 Arm1 knock-down cells, response to MMS), the “survival of Arm1 knock-down cells compared to control cells” value was “enhanced survival”.
